# Measured values: patent publication US8129425B2, “Small organic molecule regulators of cell proliferation” (Curis, Inc., priority 2000, dated 2012)
# System: hedgehog-responsive Gli-Luc reporter-construct
# Assay: Gli-Luc hedgehog pathway reporter assay in [10T1/2(s12)] cells
# Type: cell-based, murine
# Settings: Table 1
# Procedure: To measure the hedgehog agonist activity of compounds, we used [10T1/2(s12)] cells containing the hedgehog-responsive Gli-Luc reporter-construct. In each MTP (MicroTiter Plate; 96-well plate), 10,000-20,000 cells were plated per well, in full media (10% FBS). After about 24-48 hr, plates were switched to low-serum media (=0.5%. FBS). Subsequently, a test compound was added at 1-5 μM in the presence or absence of octyl-hedgehog (see below). After another 24 hr, the media from the MTPs was discarded and replaced with luciferase assay-mix, containing lysis-buffer with luciferase substrate. The plates were incubated at RT for about 15-30 min and read in a luminometer.
# Plates were incubated for 48 hr before switching to low-serum. Compounds were screened at 1-2 μM in the presence of Hh protein (0.01 μg/ml; EC30=about 30% of max-induced activity).
# Plates were incubated for 24 hr before switching to low-serum. Compounds were screened at 5 μM without adding Hh protein.
# From Screen A, we identified hits identified in FIGS. 32 and 33. The 1,4-diaminocyclohexane subunit of the compounds of FIG. 32 which include this moiety have the two amino substituents disposed in a trans-relationship, e.g., both substituents equatorial on the cyclohexane subunit. These hits were confirmed in Screen B. The data shown in FIGS. 34a and 34b essentially involved dosing the two compounds in both assays (Gli-Luc & SV-Luc).
# The data from the Gli-Luc assay is converted to percent activity where full activity with Hh protein is set at 100% (FIG. 35; Table 1). […] Furthermore, the compounds show a more striking induction in the presence of hedgehog (EC50=0.2-0.3 μM, ECmax=70-90% of max induced activity with Hh protein), indicating a synergy between the compounds and Hh protein, consistent with the compounds serving as agonists for the hedgehog pathway.
row,SMILES,EC50
1,COc1ccc(CN(C(=O)c2sc3ccccc3c2Cl)C2CCC(O)CC2)cc1-c1ccc(C#N)cc1 (stereo not shown) [A′],< 10000 nM
2,CN[C@H]1CC[C@H](N(Cc2scc(-c3cccnc3)c2C)C(=O)c2sc3ccccc3c2Cl)CC1 [A′′],< 10000 nM
3,CN[C@H]1CC[C@H](N(Cc2cc(-c3ccncc3)cs2)C(=O)c2sc3cccc(F)c3c2Cl)CC1 [A′′′],< 50 nM
4,CN[C@H]1CC[C@H](N(Cc2cccc(-c3nccs3)c2)C(=O)c2sc3ccccc3c2Cl)CC1 [B′′],< 10000 nM
5,NC1CCC(N(Cc2cccc(-c3cccnc3)c2)C(=O)c2sc3ccccc3c2Cl)CC1 (stereo not shown) [Compound C],< 1000 nM
6,COc1ccc(CN(C(=O)c2sc3ccccc3c2C)C2CCC(N)CC2)cc1-c1ccc(C#N)cc1 (stereo not shown) [Compound E],< 10000 nM
7,CNC1CCC(N(Cc2ccc(C)c(-c3ccc(C#N)cc3)c2)C(=O)c2sc3ccccc3c2Cl)CC1 (stereo not shown) [Compound S],< 1000 nM
8,COc1ccc(CN(C(=O)c2sc3ccccc3c2Cl)[C@H]2CC[C@H](N)CC2)cc1-c1ccsc1 [C′],< 10000 nM
9,CN[C@H]1CC[C@H](N(Cc2cccc(Oc3ccccc3)c2)C(=O)c2sc3ccccc3c2Cl)CC1 [C′′],< 10000 nM
10,COc1ccc(CN(C(=O)c2sc3ccccc3c2Cl)[C@H]2CC[C@H](N)CC2)cc1-c1cccnc1 [D′],< 10000 nM
11,CN[C@H]1CC[C@H](N(Cc2cccc(-c3ccc[nH]3)c2)C(=O)c2sc3ccccc3c2Cl)CC1 [D′′],< 10000 nM
12,CN[C@H]1CC[C@H](N(Cc2ccc(OC)c(-c3ccc(C#N)cc3)c2)C(=O)c2sc3ccc(F)c(F)c3c2Cl)CC1 [D′′′],< 50 nM
13,COc1ccc(CN(C(=O)c2sc3ccccc3c2Cl)[C@H]2CC[C@H](N)CC2)cc1-c1ccc(F)cc1 [E′],< 10000 nM
14,CN[C@H]1CC[C@H](N(Cc2ccc3c(c2)CCO3)C(=O)c2sc3ccccc3c2Cl)CC1 [E′′],< 10000 nM
15,NC1CCC(N(Cc2ccc(-c3nccs3)cc2)C(=O)c2sc3ccccc3c2Cl)CC1 (stereo not shown) [F],< 10000 nM
16,COc1ccc(CN(C(=O)c2sc3ccccc3c2Cl)[C@H]2CC[C@H](N)CC2)cc1-c1ccccc1 [F′],< 10000 nM
17,CN[C@H]1CC[C@H](N(Cc2ccc(OC)c(-c3ccc(C#N)cc3)c2)C(=O)c2sc3c(F)cc(F)cc3c2Cl)CC1 [F′′′],< 50 nM
18,COc1ccc(CN(C(=O)c2sc3ccccc3c2Cl)[C@H]2CC[C@H](N(C)C)CC2)cc1-c1ccc(C#N)cc1 [G′],< 10000 nM
19,CN[C@H]1CC[C@H](N(Cc2cc(-c3ccc(C#N)cc3)cs2)C(=O)c2sc3ccccc3c2Cl)CC1 [G′′],< 100 nM
20,CN[C@H]1CC[C@H](N(Cc2cncc(-c3cccnc3)c2)C(=O)c2sc3ccccc3c2Cl)CC1 [G′′′],< 5000 nM
21,COc1ccc(CN(C(=O)c2sc3ccccc3c2Cl)C2CCC(N)CC2)cc1-c1ccc(C(C)=O)cc1 (stereo not shown) [H],< 1000 nM
22,COc1ccc(CN(C(=O)c2sc3ccccc3c2Cl)[C@H]2CC[C@H](N)CC2)cc1Br [H′],> 10000 nM

row,SMILES,EC50
1,CN[C@H]1CC[C@H](N(Cc2cccc(-c3ccc(N(C)C)nc3)c2)C(=O)c2sc3ccccc3c2Cl)CC1 [H′′],< 100 nM
2,CN[C@H]1CC[C@H](N(Cc2cccc(-c3ccncc3)c2)C(=O)c2sc3ccccc3c2Cl)CC1 [H′′′],< 50 nM
3,COc1ccc(CN(C(=O)c2sc3ccccc3c2Cl)C2CCC(N)CC2)cc1-c1ncccn1 (stereo not shown) [I],> 10000 nM
4,CN[C@H]1CC[C@H](N(Cc2cccc(-c3ccc(C#N)cc3)c2)C(=O)c2sc3ccccc3c2Cl)CC1 [I′],< 1000 nM
5,CN[C@H]1CC[C@H](N(Cc2cc(-c3ccc(S(N)(=O)=O)s3)cs2)C(=O)c2sc3ccccc3c2Cl)CC1 [I′′],< 500 nM
6,NC1CCC(N(Cc2cc(-c3ccc(F)cc3)cs2)C(=O)c2sc3ccccc3c2Cl)CC1 (stereo not shown) [J],< 1000 nM
7,CN[C@H]1CC[C@H](N(Cc2ccc(OC)c(-c3ccc(C#N)cc3)c2)C(=O)c2sc3cc(F)ccc3c2Cl)CC1 [J′],< 1000 nM
8,COc1ccc(-c2cc(CN(C(=O)c3sc4ccccc4c3Cl)C3CCC(N)CC3)ccc2OC)cc1 (stereo not shown) [K],< 1000 nM
9,CN[C@H]1CC[C@H](N(Cc2ccc(OC)c(-c3ccc(C#N)cc3)c2)C(=O)c2sc3ccccc3c2C)CC1 [K′],< 10000 nM
10,CN[C@H]1CC[C@H](N(Cc2cncc(-c3ccc(S(N)(=O)=O)s3)c2)C(=O)c2sc3ccccc3c2Cl)CC1 [K′′′],< 5000 nM
11,CN[C@H]1CC[C@H](N(Cc2cccc(-c3ccc(S(=O)(=O)NC(C)(C)C)s3)c2)C(=O)c2sc3ccccc3c2Cl)CC1 [L′′],< 1000 nM
12,CN[C@H]1CC[C@H](N(Cc2ccc(OC)c(-c3ccc(C#N)cc3)c2)C(=O)c2sc3sccc3c2Cl)CC1 [L′′′],< 5000 nM
13,CNC1CCC(N(Cc2cccc(-c3ccncc3)c2)C(=O)c2sc3ccccc3c2Cl)CC1 (stereo not shown) [M],< 1000 nM
14,CN[C@H]1CC[C@H](N(Cc2cccc(-c3ccc(S(=O)(=O)N(C)C)s3)c2)C(=O)c2sc3ccccc3c2Cl)CC1 [M′′],< 1000 nM
15,CN[C@H]1CC[C@H](N(Cc2ccnc(-c3ccc(C#N)cc3)c2)C(=O)c2sc3ccccc3c2Cl)CC1 [M′′′],< 500 nM
16,CNC1CCC(N(Cc2cccc(-c3ccc(C)nc3)c2)C(=O)c2sc3ccccc3c2Cl)CC1 (stereo not shown) [N],< 1000 nM
17,CN[C@H]1CC[C@H](N(Cc2cccc(-c3cccnc3)n2)C(=O)c2sc3ccccc3c2Cl)CC1 [N′′],< 1000 nM
18,CN[C@H]1CC[C@H](N(Cc2ccnc(-c3ccc(S(N)(=O)=O)s3)c2)C(=O)c2sc3ccccc3c2Cl)CC1 [N′′′],< 5000 nM
19,CN[C@H]1CC[C@H](N(Cc2cccc(-c3ccc(S(=O)(=O)NC(C)=O)s3)c2)C(=O)c2sc3ccccc3c2Cl)CC1 [O′′],< 1000 nM
20,CN[C@H]1CC[C@H](N(Cc2ccc(OC)c(-c3ccc(C#N)cc3)c2)C(=O)c2sc3cccc(C)c3c2Cl)CC1 [O′′′],< 1000 nM
21,CNC1CCC(N(Cc2cccc(-c3cnccn3)c2)C(=O)c2sc3ccccc3c2Cl)CC1 (stereo not shown) [P],< 1000 nM

# Now from value to compound:
row,EC50,SMILES
1,< 10000 nM,CN[C@H]1CC[C@H](N(Cc2cc(-c3ccco3)cs2)C(=O)c2sc3ccccc3c2Cl)CC1 [P′′]
2,< 1000 nM,CNC1CCC(N(Cc2cccc(-c3ccccn3)c2)C(=O)c2sc3ccccc3c2Cl)CC1 (stereo not shown) [Q]
3,< 1000 nM,CN[C@H]1CC[C@H](N(Cc2ccnc(-c3ccc(N)nc3)c2)C(=O)c2sc3ccccc3c2Cl)CC1 [Q′′′]
4,< 1000 nM,CN[C@H]1CC[C@H](N(Cc2cccc(-c3ccc(S(=O)(=O)n4c(C)ccc4C)s3)c2)C(=O)c2sc3ccccc3c2Cl)CC1 [R′′]
5,< 1000 nM,CN[C@H]1CC[C@H](N(Cc2ccnc(C(F)(F)F)c2)C(=O)c2sc3ccccc3c2Cl)CC1 [R′′′]
6,< 10000 nM,CN[C@H]1CC[C@H](N(Cc2cncc(-c3ccc(C#N)cc3)c2)C(=O)c2sc3ccccc3c2Cl)CC1 [S′′]
7,< 1000 nM,CN[C@H]1CC[C@H](N(Cc2ccnc(-c3cccnc3)c2)C(=O)c2sc3ccccc3c2Cl)CC1 [S′′′]
8,< 10000 nM,Cc1ccc(-c2cccc(CN(C(=O)c3sc4ccccc4c3Cl)C3CCC(N)CC3)c2)cn1 (stereo not shown) [T]
9,< 1000 nM,CN[C@H]1CC[C@H](N(Cc2cc(Cl)nc(Cl)c2)C(=O)c2sc3ccccc3c2Cl)CC1 [T′′′]
10,< 10000 nM,CNC1CCC(N(Cc2ccc(OC)c(I)c2)C(=O)c2sc3ccccc3c2Cl)CC1 (stereo not shown) [U]
11,< 1000 nM,CN[C@H]1CC[C@H](N(Cc2cccc(-c3nccnc3C)c2)C(=O)c2sc3ccccc3c2Cl)CC1 [U′]
12,< 1000 nM,CN[C@H]1CC[C@H](N(Cc2ccccn2)C(=O)c2sc3c(F)ccc(F)c3c2Cl)CC1 [U′′′]
13,< 1000 nM,CN[C@H]1CC[C@H](N(Cc2cccc(-c3ccc(OC)nc3)c2)C(=O)c2sc3ccccc3c2Cl)CC1 [V′]
14,< 5 nM,CN[C@H]1CC[C@H](N(Cc2cc(-c3cccnc3)cs2)C(=O)c2sc3c(F)ccc(F)c3c2Cl)CC1 [V′′]
15,< 10000 nM,CNC1CCC(N(Cc2cccc(I)c2)C(=O)c2sc3ccccc3c2Cl)CC1 (stereo not shown) [W]
16,< 10000 nM,CN[C@H]1CC[C@H](N(Cc2cccc(N3CCOCC3)c2)C(=O)c2sc3ccccc3c2Cl)CC1 [W′]
17,< 5 nM,CN[C@H]1CC[C@H](N(Cc2cc(-c3ccncc3)cs2)C(=O)c2sc3c(F)ccc(F)c3c2Cl)CC1 [W′′]
18,< 10000 nM,COc1ccc(CN(C(=O)c2sc3ccccc3c2Cl)C2CCC(N)CC2)cc1-c1cccc(C#N)c1 (stereo not shown) [X]
19,< 10000 nM,CN[C@H]1CC[C@H](N(Cc2cccc(Nc3ccccn3)c2)C(=O)c2sc3ccccc3c2Cl)CC1 [X′]
20,< 10000 nM,COc1ccc(CN(C(=O)c2sc3ccccc3c2Cl)C2CCC(N)CC2)cc1-c1cccnc1 (stereo not shown) [Y]
21,< 10000 nM,CN[C@H]1CC[C@H](N(Cc2cccc(N3CCC4(CC3)OCCO4)c2)C(=O)c2sc3ccccc3c2Cl)CC1 [Y′]
22,< 50 nM,CN[C@H]1CC[C@H](N(Cc2ccc(OC)c(-c3ccc(C#N)cc3)c2)C(=O)c2sc3cccc(F)c3c2Cl)CC1 [Y′′]
23,< 10000 nM,COc1ccc(CN(C(=O)c2sc3ccccc3c2Cl)C2CCC(N)CC2)cc1-c1nccs1 (stereo not shown) [Z]
24,< 10000 nM,CN[C@H]1CC[C@H](N(Cc2cccc(C#N)c2)C(=O)c2sc3ccccc3c2Cl)CC1 [Z′]
